From publication PMC12716008 (Chemistry & Biodiversity, 2025)
Converted amounts (≈) assume the structure as drawn. Where two headings read alike, the source gives them in different places. Starred links: 1 amine or outer side, 2 acyl side, 3 side chain; linkers in the order of their positions; H or OH if unused. Positions of bridges follow the written chain, without caps; N, C: chain ends. Non-standard residues stand in square brackets, D forms with d. Residues, ends and D or L forms follow the SMILES beside them. Chains are numbered I, II in the order given. Actinocin(9to1) = Cc1c2oc3c(C)ccc(C(=O)[*:1])c3nc-2c(C(=O)[*:2])c(N)c1=O; NMeV = CN[C@H](C(=O)O)C(C)C; Sar = CNCC(=O)O

How the values were obtained:
[1] = test system: Mycobacterium smegmatis (MC^2 155); assay: Antimycobacterial activity, microtitre Alamar Blue/Presto Blue assay (MIC); format: cell-based; settings: Mycolicibacterium smegmatis, read-out: M. smeg MIC
[2] = test system: M. smegmatis biofilm formation; assay: Mycobacterial biofilm inhibition, microtitre antibiofilm assay (MBIC); format: cell-based, Mycobacterium smegmatis; settings: 2–4 days, 37°C, read-out: M. smeg MBIC
[3] = test system: MSSA UAMS‐1 biofilm formation; assay: Staphylococcal biofilm inhibition, crystal violet microtitre test (MBIC); format: cell-based; settings: Staphylococcus aureus, 22 h, read-out: MSSA MBIC
[4] = test system: MRSA AH1263 or LAC biofilm formation; assay: as above; format: cell-based; settings: Staphylococcus aureus, 22 h, read-out: MRSA MBIC
[5] = test system: Mycobacterium tuberculosis H37Rv (ATCC 27264); assay: Antimycobacterial activity, microtitre Alamar Blue/Presto Blue assay (MIC); format: cell-based; settings: 120 h, read-out: M. tb MIC
[6] = test system: methicillin‐sensitive S. aureus (MSSA) UAMS‐1; assay: Antistaphylococcal activity, broth microdilution (MIC); format: cell-based; settings: Staphylococcus aureus, read-out: MSSA MIC
[7] = test system: methicillin‐resistant S. aureus (MRSA) AH1263 or LAC; assay: as above; format: cell-based, Staphylococcus aureus; settings: 18 h, read-out: MRSA MIC
[8] = test system: African green monkey kidney (Vero) cell line; assay: Cytotoxicity, Presto Blue cell viability; format: cell-based; settings: 72 h, read-out: Vero IC50 ± SD
Method: (§1) The human monocyte (U937) and African green monkey kidney (Vero) cell lines were used in this study to determine the cytotoxic potential of the quinoline derivatives. The cell lines were purchased from Separation Scientific SA (Pty) Ltd. (Johannesburg, South Africa) and maintained in Roswell Park Memorial Institute (RPMI) 1640 and Eagle's Minimal Essential Medium (EMEM), supplemented with 10% heat‐inactivated foetal bovine serum (FBS), 1% antibiotics (100 U/mL penicillin and 100 µg/mL streptomycin) and 1% antifungal agent (250 µg/mL amphotericin B) as previously described. The cells were cultured at 37°C, 5% CO2 in a humidified incubator to 80% confluency. Detachment was achieved by rinsing the cells with phosphate buffer saline followed by the addition of trypsin–EDTA (0.25% trypsin containing 0.01% EDTA). After 5 min, the reaction was inhibited through the addition of supplemented media.
(§2) Cell viability was assessed through the method described by Lall et al., using Presto Blue as the viability reagent. The cells were seeded in a flat‐bottom 96‐well plate (100 µL) at a concentration of 1.0 × 10^6 cells/mL and allowed to adhere for 24 h. The samples were prepared in DMSO at a stock concentration of 20 mM, serially diluted in complete media and added to the plate at a final concentration range of 0.78–100 µM. Controls included a vehicle control (2% DMSO), an untreated cell control, a 0% control (no cells) and actinomycin D, as the positive control, at a final test concentration range of 3.9 × 10^−4 to 0.05 µg/mL. Cells were incubated for 72 h, followed by the addition of 20 µL of Presto Blue reagent to all the wells and an additional 2 h incubation. Cell viability was measured using a VICTOR Nivo Multimode Microplate Reader (PerkinElmer) at an excitation/emission wavelength of 540/590 nm.
(§3) All results are presented as the mean ± standard deviation (where applicable) of experiments done in triplicate and in two or three independent experiments (as stated in each methods section). Descriptive analysis was used to directly compare and rank the compounds and derivatives based on their activity in the biological assays. Additionally, by comparing the antibiofilm activity to the antibacterial activity and the antibacterial activity to the cytotoxicity, selectivity indices were used to assess the preferential activity of the compounds.

[9] = test system: human monocyte (U937) cell line; assay: Cytotoxicity, Presto Blue cell viability; format: cell-based; settings: U-937, 72 h
Method: as §1, §2, §3

hepatoma (Hep3B) = settings: cited from earlier work
[10] = MC^2155, M. smegmatis, 24 h, 37°C
[11] = M. tuberculosis H37Rv, 5 days, 37°C
[12] = Chlorocebus sabaeus, Vero, Vero cells
[13] = U937 cells, 72 h, read-out: U937 IC50 ± SD
[14] = Staphylococcus aureus, MRSA, S. aureus AH1263/LAC

SMILES	MIC [1, 10] [µM]	minimal effective concentration ([2]; Mycolicibacterium smegmatis) [µM]	minimal effective concentration ([4]; S. aureus AH1263/LAC biofilm) [µM]	MIC [5, 11] [µM]	IC50 [8, 12] [µM]	IC50 [9, 13] [µM]	MIC ([6]; S. aureus UAMS‐1, 18 h) [µM]	MIC [7, 14] [µM]	other results
O=C(O)c1cn(C2CC2)c2cc(N3CCNCC3)c(F)cc2c1=O [Ciprofloxacin, reference compound]	0.6 (≈ 0.199 µg/mL)	0.325	1						minimal effective concentration ([3]; S. aureus UAMS‐1 biofilm): 2 µM
Oc1cccc2cccnc12 [HQ‐1, 8‐hydroxyquinoline, reference compound]									MIC [5]: 1 µM (≈ 0.145 µg/mL); MIC ([1]; MC^2155, 24 h): 3.13 µM (≈ 0.454 µg/mL); MIC ([6]; 18 h): 13.8 µM (≈ 2 µg/mL); MIC ([7]; S. aureus AH1263/LAC): 6.90 µM (≈ 1 µg/mL); MIC ([7]; Staphylococcus aureus, MRSA): 6.9 µM (≈ 1 µg/mL); minimal effective concentration [3]: 13.8 µM; minimal effective concentration [4]: 6.9 µM
CCCCCOc1c(Cl)cc(Cl)c2ccc(C)nc12 [QD‐4]	> 100	> 100		> 100	> 100	> 100			
CC(C)=CCOc1c(Cl)cc(Cl)c2ccc(C)nc12 [QD‐6]	> 100	> 100	256	100 (≈ 29.6 µg/mL)	> 100	> 100			
Cc1ccc2c(Cl)cc(Cl)c(OCCC(C)C)c2n1 [QD‐5]	> 100	> 100		> 100	> 100	> 100			
Cc1ccc2cccc(OCCC(C)C)c2n1 [QD‐8]	> 100	100		100 (≈ 22.9 µg/mL)	> 100	> 100	559 (≈ 128 µg/mL)		
CC(C)=CCOc1cccc2ccc(C)nc12 [QD‐9]	> 100	> 100		100 (≈ 22.7 µg/mL)	> 100	> 100			
CC(C)CCOc1cccc2cccnc12 [QD‐2]	> 100	> 100	1190	> 100	> 100	> 100		1190 (≈ 256 µg/mL)	minimal effective concentration ([3]; S. aureus UAMS‐1 biofilm): 1190 µM
CCCCCOC(=O)c1ccc2cccc(OCCCCC)c2n1 [QD‐10, pentyl 8‐(pentyloxy)quinoline‐2‐carboxylate]	> 100	> 100		100 (≈ 32.9 µg/mL)	84.8 ± 3.42	69.48 ± 0.16	389 (≈ 128 µg/mL)	389 (≈ 128 µg/mL)	
NNC(=O)c1ccncc1 [Isoniazid, reference compound]				0.3 (≈ 0.0411 µg/mL)					
Cc1c2oc3c(C)ccc(C(=O)N[C@@H]4C(=O)N[C@H](C(C)C)C(=O)N5CCC[C@H]5C(=O)N(C)CC(=O)N(C)[C@@H](C(C)C)C(=O)O[C@@H]4C)c3nc-2c(C(=O)N[C@@H]2C(=O)N[C@H](C(C)C)C(=O)N3CCC[C@H]3C(=O)N(C)CC(=O)N(C)[C@@H](C(C)C)C(=O)O[C@@H]2C)c(N)c1=O [Actinomycin D, reference compound] (I: T[dV]P[Sar][NMeV] / II: T[dV]P[Sar][NMeV]; ester I:1-I:C, II:1-II:C; linker I:N-II:N via Actinocin(9to1))									IC50 ([8]; Chlorocebus sabaeus, Vero): 0.02 µM; IC50 ([9]; read-out: U937 IC50 ± SD): 0.002 µM
CN[C@H](CC(C)C)C(=O)N[C@H]1C(=O)N[C@@H](CC(N)=O)C(=O)N[C@H]2C(=O)N[C@H]3C(=O)N[C@H](C(=O)N[C@H](C(=O)O)c4cc(O)cc(O)c4-c4cc3ccc4O)[C@H](O)c3ccc(c(Cl)c3)Oc3cc2cc(c3O[C@@H]2O[C@H](CO)[C@@H](O)[C@H](O)[C@H]2O[C@H]2C[C@](C)(N)[C@H](O)[C@H](C)O2)Oc2ccc(cc2Cl)[C@H]1O [Vancomycin, reference compound]									MIC ([6]; 18 h): 1 µM (≈ 1.45 µg/mL); MIC ([7]; Staphylococcus aureus, MRSA): 1 µM (≈ 1.45 µg/mL)
CC(C)=CCOc1cccc2cccnc12 [QD‐3]	> 100	100	601	100 (≈ 21.3 µg/mL)	> 100	83.83 ± 0.8	300 (≈ 64.1 µg/mL)	300 (≈ 64.1 µg/mL)	minimal effective concentration ([3]; S. aureus UAMS‐1 biofilm): 601 µM
CCCCCOc1cccc2cccnc12 [QD‐1]	> 100	> 100	595	100 (≈ 21.5 µg/mL)	> 100	> 100	595 (≈ 128 µg/mL)	595 (≈ 128 µg/mL)	minimal effective concentration ([3]; S. aureus UAMS‐1 biofilm): 595 µM
Cc1ccc2cccc(O)c2n1 [HQ‐3, 2‐methyl‐8‐hydroxyquinoline, reference compound]									MIC [5]: 1 µM (≈ 0.159 µg/mL); MIC ([1]; MC^2155, 24 h): 6.25 µM (≈ 0.995 µg/mL); MIC ([6]; 18 h): 201 µM (≈ 32 µg/mL); MIC ([7]; Staphylococcus aureus, MRSA): 101 µM (≈ 16 µg/mL); minimal effective concentration [3]: 101 µM; minimal effective concentration [4]: 201 µM; IC50 ([8]; Chlorocebus sabaeus, Vero): > 100 µM; IC50 ([9]; read-out: U937 IC50 ± SD, U937 cells, 72 h): > 100 µM
CCCCCOc1cccc2ccc(C)nc12 [QD‐7]	> 100	> 100		100 (≈ 22.9 µg/mL)	> 100	> 100	1120 (≈ 256 µg/mL)	1120 (≈ 256 µg/mL)	
Cc1onc(-c2ccccc2)c1C(=O)N[C@@H]1C(=O)N2[C@@H]1SC(C)(C)[C@@H]2C(=O)O [Oxacillin, reference compound]							1 (≈ 0.401 µg/mL)	64 (≈ 25.7 µg/mL)	
CC(C)CCOC(=O)c1ccc2cccc(OCCC(C)C)c2n1 [QD‐11, isopentyl 8‐(isopentyloxy)quinoline‐2‐carboxylate]	> 100	> 100		100 (≈ 32.9 µg/mL)	70.4 ± 3.99	> 100	389 (≈ 128 µg/mL)	389 (≈ 128 µg/mL)	
Cc1ccc2c(Cl)cc(Cl)c(O)c2n1 [HQ‐2, 5,7‐dichloro‐8‐hydroxy‐2‐methylquinoline, reference compound]	1.56 (≈ 0.356 µg/mL)	3.13	35.2	0.1 (≈ 0.0228 µg/mL)	< 100		2.2 (≈ 0.502 µg/mL)	1.1 (≈ 0.251 µg/mL)	minimal effective concentration ([3]; S. aureus UAMS‐1 biofilm): 17.6 µM; IC50 ([8]; Vero cells): 82.8 ± 7.09 µM
CC(C)=CCOc1cccc2ccc(C=O)nc12 [QD‐12]	100 (≈ 24.1 µg/mL)	12.5	266	100 (≈ 24.1 µg/mL)	> 100	> 100	266 (≈ 64.1 µg/mL)	133 (≈ 32 µg/mL)	minimal effective concentration ([3]; S. aureus UAMS‐1 biofilm): 531 µM
O=Cc1ccc2cccc(O)c2n1 [HQ‐4, 8‐hydroxyquinoline‐2‐carbaldehyde, reference compound]									MIC [5]: 1 µM (≈ 0.173 µg/mL); MIC ([1]; MC^2155, 24 h): > 100 µM; minimal effective concentration [2]: >100 µM; MIC ([6]; 18 h): 370 µM (≈ 64.1 µg/mL); MIC ([7]; Staphylococcus aureus, MRSA): 370 µM (≈ 64.1 µg/mL); minimal effective concentration [3]: 740 µM; minimal effective concentration [4]: 740 µM; IC50 ([8]; Chlorocebus sabaeus, Vero): > 100 µM; MTS50 (hepatoma (Hep3B)): 6.25 ± 0.034 µg/mL
